According to patent US20030087308A1, “Method for high through put screening using a small scale mill or microfluidics” (Elan Pharma International Limited, priority 2001, published 2003):
Like-named read-outs stand apart in the source and are kept apart here.

Key:
[1] = Quality of milled dispersion by photomicrography; assay type: physicochemical
Method: Analysis of resultant particle size was via photomicrography.
[…] The composition was then milled in a 10 mL chamber of a NanoMill™.

[2] = Particle size of nanoparticle suspension after small scale high energy milling (microscopy, laser light diffraction); assay type: physicochemical
[3] = PVP K29/32 and SLS 5:2:0.05, 6000 rpm
Method: The mixture was milled in a NanoMill™ (Elan Drug Delivery, Inc.). Using a media load of 100% at the maximum rpm of 6000 maximized the energy input.
Further calculations were based on a bulk density of 0.61 g/ml for PolyMill™ 500 μ media (Dow Chemical) and a void volume of 40%. Since the amounts were low and mixing difficult, PVP and SLS were prepared as 20% and 5% stock solutions, respectively. The calculations for milling in a 10 mL, 18 mL, and 26 mL milling chambers are summarized in the following chart: […]

[4] = 10 mL chamber, 25 mg naproxen, after 1 hr

Row | SMILES | resultant particle size ([1]; 10 mg, Pluronic F-108 at 5:2, 10 mL chamber, 5 to 30 min) | Particle Size ([2]; 50 mg milled, 15 min milling time) [nm] | Particle Size ([2]; 200 mg milled, 60 min milling time) [nm] | mean diameter of nanoparticle suspension ([2]; <50 mg of drug milled 15 min, small-volume high energy mill, unimodal distribution) | mean particle size (bimodal peak) [3, 4] [nm] | median particle size (bimodal peak) [3, 4] [nm] | single peak mean particle size ([3]; 18 mL chamber, 45 mg naproxen) [nm] | single peak mean particle size ([3]; 26 mL chamber, 65 mg naproxen) [nm] | dispersion quality ([1]; 5 mg, 10 mL chamber, PVP K29/32 and SLS 5:2:0.05) | dispersion quality ([1]; 25 mg, 10 mL chamber, 15 min) | dispersion quality ([1]; 25 mg, 18 mL chamber, 15 min) | dispersion quality ([1]; 25 mg, 18 mL chamber, 30 min) | dispersion quality ([1]; 25 mg, 26 mL chamber, 5 min) | dispersion quality ([1]; 25 mg, 26 mL chamber, 15 min)
1 | CCOC(=O)CCCCCOC(=O)c1c(I)c(NC(C)=O)c(I)c(NC(C)=O)c1I [Photogen, 6-ethoxy-6-oxohexyl-3,5-bis(acetamido)-2,4,6-triiodobenzoate] | predominantly sub-micron |  |  |  |  |  |  |  |  |  |  |  |  | 
2 | COc1ccc2cc([C@H](C)C(=O)O)ccc2c1 [Naproxen] |  | 159 | 147 | less than 200 nm | 1496 | 354 | 314 | 630 | well dispersed nano-suspension | reasonable naproxen dispersion | reasonable naproxen dispersion | over-milled and aggregated | excellent homogeneity | clearly degenerating
